Patent publication US10071965B2, “Pyridone FabI inhibitors and uses thereof” (priority 2015, dated 2018)
Converted amounts (≈) assume the structure as drawn. “And” between values parts separate entries of the source, which are not always exact repeats. Equal values may be shown once. Read-outs that look alike come from different tables or passages of the source.

How the values were obtained:
in vivo = conditions: female, ICR, mouse, ip, 200 mg/kg
E. coli MG1655 ΔacrAB = experiment: microbe, parasite or virus in culture; assay type: cell-based, Escherichia coli; conditions: Escherichia coli, MG1655
MRSA strain BAA1762 = experiment: Neutropenic mouse thigh infection model; assay type: in vivo, Swiss Webster mice; conditions: 100 mg/kg dose, MRSA BAA1762, neutropenic mouse
ecFabI = ecFabI (Escherichia coli (strain K12), UniProt P0AEK4); experiment: ecFabI inhibition kinetics; assay type: biochemical
S. aureus RN4220 = experiment: MIC microbroth dilution, S. aureus RN4220; assay type: cell-based, Staphylococcus aureus; conditions: for MIC: Staphylococcus aureus
saFabI [1] = biological target: T1, saFabI (Staphylococcus aureus (strain MRSA252), UniProt Q6GI75); experiment: Jump dilution assay with saFabI; assay type: biochemical; conditions: preincubation with NADP+ and saFabI, jump dilution; read-out: residence time tR
[2] = biological target: M. tuberculosis enoyl-ACP reductase InhA (Mycobacterium tuberculosis (strain ATCC 25618 / H37Rv), UniProt P9WGR1); experiment: InhA inhibition kinetics; assay type: biochemical
M. tuberculosis H37Rv = experiment: MIC microbroth dilution, M. tuberculosis H37Rv; assay type: cell-based; conditions: Mycobacterium tuberculosis, H37RV, read-out: Mycobacterium tuberculosis MIC (μg/mL) H37Rv
bpFabV = bpFabV (Burkholderia pseudomallei, UniProt Q63TE9); assay type: biochemical; conditions: read-out: Burkholderia pseudomallei IC50 (μM), bpFabV
YpFabV = YpFabV (Yersinia pestis, UniProt Q8Z9U1); experiment: biochemical
saFabI [3] = biological target: T1, saFabI; experiment: saFabI inhibition kinetics; assay type: biochemical
[4] = biological target: Francisella tularensis FabI (Francisella tularensis subsp. tularensis (strain SCHU S4 / Schu 4), UniProt Q5NGQ3); experiment: biochemical
F. tularensis LVS = experiment: microbe, parasite or virus in culture; assay type: cell-based; conditions: Francisella tularensis, read-out: Francisella tularensis MIC (μg/mL) LVS, 2-pyridones table
bpFabI = bpFabI (Burkholderia pseudomallei, UniProt A0A0H3HP34); experiment: biochemical
Bt38 = experiment: microbe, parasite or virus in culture; assay type: cell-based; conditions: Burkholderia pseudomallei, read-out: Burkholderia pseudomallei MIC (μg/mL) Bt38
[5] = [S]/KS = 0.19, binds E-NAD+ binary complex, single point progress curve analysis, read-out: Ki^app
[6] = binds E-NAD+ binary complex, single point progress curve analysis, read-out: Ki
[7] = RN4220, S. aureus RN4220, read-out: MIC
[8] = Ki^app (nM), saFabI, [S]/KS = 2
[9] = RN4220, 2-pyridones table, read-out: Staphylococcus aureus MIC (μg/mL) RN4220
[10] = Staphylococcus aureus Ki (in brackets under IC50), 2-pyridones table

With CCCCCCc1ccc(Oc2ccccc2)c(O)c1 [PT04, 5-hexyl-2-phenoxyphenol, reference compound] the AUC(0-t) (in vivo) was 11800 ng·h/mL, the Cmax (in vivo) was 5100 ng/mL and the Tmax (in vivo) was 1 h. The half-life (in vivo) was 4.5 h, the MIC (E. coli MG1655 ΔacrAB) was 14.8 µM (≈ 4 µg/mL) and the “decrease of bacterial burden in the infected thigh” value (MRSA strain BAA1762) was 0.9 log cfu/g tissue. The Ki (ecFabI; [5]) was 32.2 nM and the Ki (ecFabI; [6]) was 0.2 nM.

Compound Oc1ccccc1Oc1ccccc1 [PT51, reference compound] has an MIC (S. aureus RN4220; [7]) of 687 µM.

For Oc1cc(Cl)ccc1Oc1ccccc1 [PT52], the residence time (saFabI [1]) was 30 min, the MIC (E. coli MG1655 ΔacrAB) was 0.1 µM (≈ 0.0221 µg/mL) and the Ki (ecFabI; [5]) was 26.9 nM. The Ki (ecFabI; [6]) was 0.1 nM.

In the case of Cc1ccc(Oc2ccccc2)c(O)c1 [PT53, reference compound], the MIC (S. aureus RN4220; [7]) is reported as 20 µM.

Work on Oc1cc(F)ccc1Oc1ccccc1 [PT55] yielded an MIC (E. coli MG1655 ΔacrAB) of 1.2 µM (≈ 0.245 µg/mL), a Ki (ecFabI; [5]) of 92.6 nM and a Ki (ecFabI; [6]) of 1.1 nM.

With Cn1cc(Oc2ccc([N+](=O)[O-])cc2)c(=O)cc1CCl [PT151] the “Mycobacterium tuberculosis enzyme, inhibition at 1 μM” value ([2]; at 1 μM, [E] = 50 nM) was “No”.

Cc1cc([N+](=O)[O-])ccc1Oc1cn(C)c(CCl)cc1=O [PT152] showed an MIC (M. tuberculosis H37Rv; 4-pyridones table) of 12.5 µg/mL (≈ 40.5 µM) and an IC50 [2] of 2.25 µM.

With CCCCCCc1cc(=O)c(Oc2ccc(N)cc2)cn1C [PT157] the MIC (M. tuberculosis H37Rv; 4-pyridones table) was 50 µg/mL (≈ 166 µM), the IC50 (bpFabV) was 1 µM and 0.87 µM and the IC50 [2] was 0.424 µM. It also gave an IC50 (YpFabV) of 0.13 µM.

Work on CCCCCCc1cc(=O)c(Oc2ccccc2C#N)cn1C [PT159] yielded an MIC (M. tuberculosis H37Rv; 4-pyridones table) of 50 µg/mL (≈ 161 µM), an MIC (S. aureus RN4220; RN4220, 4-pyridones table, read-out: Staphylococcus aureus MIC (μg/mL) RN4220) of 4 µg/mL and an MIC (S. aureus RN4220; [7]) of 12.9 µM. It also gave a Ki (saFabI [3]; Ki (nM), saFabI) of 11 ± 0.9 nM, a Ki (saFabI [3]; [8]) of 41 ± 3.4 nM and a Ki (saFabI [3]; Staphylococcus aureus Ki (nM), 4-pyridones table) of 11 nM. The IC50 [2] was 0.629 µM.

Compound CCCCCCc1cc(=O)c(Oc2cccnc2C#N)cn1C [PT167] has an MIC (M. tuberculosis H37Rv; 4-pyridones table) of 100 µg/mL (≈ 321 µM) and an IC50 [2] of 0.979 ± 0.152 µM.

For CCCCCCc1cc(=O)c(Oc2ccccn2)cn1C [PT168], the MIC (M. tuberculosis H37Rv; 4-pyridones table) was 50 µg/mL (≈ 175 µM) and the IC50 [2] was 1.78 ± 0.315 µM.

Compound CCCCCCc1cc(=O)c(Oc2cccnc2N)cn1C [PT169] has an MIC (M. tuberculosis H37Rv; 4-pyridones table) of 12.5 µg/mL (≈ 41.5 µM) and an IC50 [2] of 0.379 ± 0.041 µM.

Compound Cc1ccn(Cc2ccccc2Cl)c(=O)c1 [PT170] has an IC50 [4] of 0.202 ± 0.017 µM, an MIC (M. tuberculosis H37Rv; 2-pyridones table) of over 50 µg/mL and an MIC (S. aureus RN4220; [9]) of over 500 µg/mL. It also gave an MIC (S. aureus RN4220; [7]) of over 500 µM, an IC50 (saFabI [3]) of over 1 µM and a Ki (saFabI [3]; Ki (nM), saFabI) of 229 ± 5.2 nM. The Ki (saFabI [3]; [8]) was 849 ± 19.3 nM, the Ki (saFabI [3]; [10]) was 229 ± 5.2 nM and the IC50 [2] was over 1.7 µM. It also gave an MIC (F. tularensis LVS) of 50 µg/mL (≈ 214 µM) and an IC50 (bpFabI) of over 1 µM.

CCCCCCc1ccn(Cc2ccccc2C)c(=O)c1 [PT171] showed an MIC (Bt38) of 154 µg/mL (≈ 542 µM), an IC50 [4] of 0.083 ± 0.032 µM and an MIC (M. tuberculosis H37Rv; 2-pyridones table) of 25 µg/mL (≈ 88.2 µM). The MIC (S. aureus RN4220; [9]) was 5 µg/mL, the IC50 (saFabI [3]) was 0.15 ± 0.022 µM and the Ki (saFabI [3]; Ki (nM), saFabI) was 11.9 ± 1.8 nM. The Ki (saFabI [3]; [8]) was 44.3 ± 6.6 nM, the Ki (saFabI [3]; [10]) was 11.9 ± 1.8 nM and the IC50 [2] was 0.13 ± 0.021 µM. The MIC (F. tularensis LVS) was 3.65 µg/mL (≈ 12.9 µM), the Ki (ecFabI; Ki^app (nM), [S]/KS = 0.19) was 116 ± 4.6 nM and the IC50 (bpFabI) was about 0.4 µM.

CCCCCCc1ccn(Cc2ccccc2Cl)c(=O)c1 [PT172] gave an MIC (Bt38) of 250 µg/mL (≈ 823 µM), an IC50 [4] of 0.061 ± 0.013 µM and an MIC (M. tuberculosis H37Rv; 2-pyridones table) of 25 µg/mL (≈ 82.3 µM). For the same compound, the “Staphylococcus aureus MIC (μg/mL) RN4220” value (S. aureus RN4220; 2-pyridones table) was 8 µg/mL, the MIC (S. aureus RN4220; [9]) was 5 µg/mL and the MIC (S. aureus RN4220; [7]) was 26.3 µM. For the same compound, the IC50 (saFabI [3]) was 0.379 ± 0.088 µM, the Ki (saFabI [3]; Ki (nM), saFabI) was 11 ± 0.4 nM and the Ki (saFabI [3]; [8]) was 40.7 ± 1.3 nM. For the same compound, the Ki (saFabI [3]; [10]) was 11 ± 0.4 nM, the IC50 [2] was 0.24 ± 0.044 µM and the MIC (F. tularensis LVS) was 4.04 µg/mL (≈ 13.3 µM). The IC50 (bpFabI) was 0.26 ± 0.0093 µM.
